Test results published in ChEMBL document CHEMBL5634100, “Novel spiro[pyrrolidine-2,3'-quinoline]-2'-one derivatives containing piperazine fragment as potential chitin synthase inhibitors and antifungal agents: Design, synthesis and biological evaluation” (Eur J Med Chem, 2023).
In brackets after ≈: the same amount, converted by molar mass.

What was measured:
Aspergillus fumigatus [1] = assay: Antimicrobial activity against Aspergillus fumigatus GIMCC 3.19 assessed as inhibition of cell wall synthesis in presence of sorbitol; format: functional
Aspergillus fumigatus [2] = assay: Antimicrobial activity against Aspergillus fumigatus GIMCC 3.19 incubated for 24 hrs in presence of fluconazole by checkerboard method; format: functional
Candida albicans [3] = assay: Antimicrobial activity against fluconazole-resistant Candida albicans ATCC 76615R incubated for 24 hrs by two fold serial dilution method; format: functional
[4] = Inhibition of Candida tropicalis ATCC 750 chitin synthase using UDP-GlcNAc as substrate by TMB based microplate analyzer
Candida albicans [5] = assay: Synergistic antimicrobial activity against Candida albicans ATCC 76615 assessed as fractional inhibitory concentration index incubated for 24 hrs in presence of fluconazole by checkerboard method; format: functional
Aspergillus fumigatus [6] = assay: Antimicrobial activity against Fluconazole-resistant Aspergillus fumigatus GIMCC 3.19R incubated for 24 hrs by two fold serial dilution method; format: functional
Cryptococcus neoformans [7] = assay: Antimicrobial activity against Cryptococcus neoformans ATCC 32719 assessed as inhibition of cell wall synthesis in presence of sorbitol; format: functional
Candida albicans [8] = assay: Antimicrobial activity against micafungin-resistant Candida albicans ATCC 76615R incubated for 24 hrs by two fold serial dilution method; format: functional
Aspergillus flavus [9] = assay: Synergistic antimicrobial activity against Aspergillus flavus ATCC 16870 assessed as fractional inhibitory concentration index incubated for 24 hrs in presence of fluconazole by checkerboard method; format: functional
Cryptococcus neoformans [10] = assay: Antimicrobial activity against Fluconazole-resistant Cryptococcus neoformans ATCC 32719R incubated for 24 hrs by two fold serial dilution method; format: functional
Aspergillus fumigatus [11] = assay: Antimicrobial activity against Aspergillus fumigatus GIMCC 3.19 incubated for 24 hrs in presence of polyoxin B by checkerboard method; format: functional
Candida albicans [12] = assay: Antimicrobial activity against Candida albicans ATCC 76615 assessed as inhibition of cell wall synthesis in presence of sorbitol; format: functional
Candida albicans [13] = assay: Antimicrobial activity against Candida albicans ATCC 76615 incubated for 24 hrs in presence of polyoxin B by checkerboard method; format: functional
Cryptococcus neoformans [14] = assay: Synergistic antimicrobial activity against Cryptococcus neoformans ATCC 32719 assessed as fractional inhibitory concentration index incubated for 24 hrs in presence of polyoxin B by checkerboard method; format: functional
Cryptococcus neoformans [15] = assay: Antimicrobial activity against Cryptococcus neoformans ATCC 32719 incubated for 24 hrs in presence of polyoxin B by checkerboard method; format: functional
Candida tropicalis = assay: Inhibition of Candida tropicalis ATCC 750 chitin synthase using UDP-GlcNAc as substrate at 300 ug/ml by TMB based microplate analyzer relative to control; details: dose 300.0 µg/ml
Aspergillus fumigatus [16] = assay: Additive antimicrobial activity against Aspergillus fumigatus GIMCC 3.19 assessed as fractional inhibitory concentration index incubated for 24 hrs in presence of fluconazole by checkerboard method; format: functional
Cryptococcus neoformans [17] = assay: Synergistic antimicrobial activity against Cryptococcus neoformans ATCC 32719 assessed as fractional inhibitory concentration index incubated for 24 hrs in presence of fluconazole by checkerboard method; format: functional
Cryptococcus neoformans [18] = assay: Antimicrobial activity against Cryptococcus neoformans ATCC 32719 incubated for 24 hrs in presence of fluconazole by checkerboard method; format: functional
Candida albicans [19] = assay: Synergistic antimicrobial activity against Candida albicans ATCC 76615 assessed as fractional inhibitory concentration index incubated for 24 hrs in presence of polyoxin B by checkerboard method; format: functional
Aspergillus fumigatus [20] = assay: Antimicrobial activity against Aspergillus fumigatus GIMCC 3.19 incubated for 24 hrs by two fold serial dilution method; format: functional
Aspergillus fumigatus [21] = assay: Additive antimicrobial activity against Aspergillus fumigatus GIMCC 3.19 assessed as fractional inhibitory concentration index incubated for 24 hrs in presence of polyoxin B by checkerboard method; format: functional
Aspergillus flavus [22] = assay: Antimicrobial activity against Aspergillus flavus ATCC 16870 incubated for 24 hrs by two fold serial dilution method; format: functional
Aspergillus flavus [23] = assay: Additive antimicrobial activity against Aspergillus flavus ATCC 16870 assessed as fractional inhibitory concentration index incubated for 24 hrs in presence of polyoxin B by checkerboard method; format: functional
Aspergillus flavus [24] = assay: Antimicrobial activity against Aspergillus flavus ATCC 16870 incubated for 24 hrs in presence of polyoxin B by checkerboard method; format: functional
Candida albicans [25] = assay: Antimicrobial activity against Candida albicans ATCC 76615 incubated for 24 hrs in presence of fluconazole by checkerboard method; format: functional
Aspergillus flavus [26] = assay: Antimicrobial activity against Aspergillus flavus ATCC 16870 incubated for 24 hrs in presence of fluconazole by checkerboard method; format: functional
Candida albicans [27] = assay: Antimicrobial activity against Candida albicans ATCC 76615 incubated for 24 hrs by two fold serial dilution method; format: functional
Aspergillus flavus [28] = assay: Antimicrobial activity against Aspergillus flavus ATCC 16870 assessed as inhibition of cell wall synthesis in presence of sorbitol; format: functional
Aspergillus flavus [29] = assay: Antimicrobial activity against Fluconazole-resistant Aspergillus flavus ATCC 16870R incubated for 24 hrs by two fold serial dilution method; format: functional
Cryptococcus neoformans [30] = assay: Antimicrobial activity against Cryptococcus neoformans ATCC 32719 incubated for 24 hrs by two fold serial dilution method; format: functional
Aspergillus flavus [31] = assay: Additive antimicrobial activity against Aspergillus flavus ATCC 16870 assessed as fractional inhibitory concentration index incubated for 24 hrs in presence of fluconazole by checkerboard method; format: functional
Cryptococcus neoformans [32] = assay: Additive antimicrobial activity against Cryptococcus neoformans ATCC 32719 assessed as fractional inhibitory concentration index incubated for 24 hrs in presence of fluconazole by checkerboard method; format: functional
Aspergillus fumigatus [33] = assay: Synergistic antimicrobial activity against Aspergillus fumigatus GIMCC 3.19 assessed as fractional inhibitory concentration index incubated for 24 hrs in presence of fluconazole by checkerboard method; format: functional
Cryptococcus neoformans [34] = assay: Additive antimicrobial activity against Cryptococcus neoformans ATCC 32719 assessed as fractional inhibitory concentration index incubated for 24 hrs in presence of polyoxin B by checkerboard method; format: functional
Aspergillus fumigatus [35] = assay: Synergistic antimicrobial activity against Aspergillus fumigatus GIMCC 3.19 assessed as fractional inhibitory concentration index incubated for 24 hrs in presence of polyoxin B by checkerboard method; format: functional
Candida albicans [36] = assay: Additive antimicrobial activity against Candida albicans ATCC 76615 assessed as fractional inhibitory concentration index incubated for 24 hrs in presence of polyoxin B by checkerboard method; format: functional

## O=C(c1cc([N+](=O)[O-])ccc1Cl)N1CCN(CC(=O)N2CCCC23Cc2ccccc2NC3=O)CC1 (configuration not stated)
Aspergillus fumigatus [1]
  MIC: 128 µg/mL
Aspergillus fumigatus [2]
  MIC: 1 µg/mL
Candida albicans [3]
  MIC: 32 µg/mL (≈ 62.5 µM)
[4]
  IC50: 100 µM
Candida albicans [5]
  fractional inhibitory concentration index (FICI): 1
Aspergillus fumigatus [6]
  MIC: 32 µg/mL (≈ 62.5 µM)
Cryptococcus neoformans [7]
  MIC: 256 µg/mL
Candida albicans [8]
  MIC: 32 µg/mL (≈ 62.5 µM)
Aspergillus flavus [9]
  fractional inhibitory concentration index (FICI): 0.75
Cryptococcus neoformans [10]
  MIC: 128 µg/mL (≈ 250 µM)
Aspergillus fumigatus [11]
  MIC: 2 µg/mL
Candida albicans [12]
  MIC: 32 µg/mL
Candida albicans [13]
  MIC: 2 µg/mL
Cryptococcus neoformans [14]
  fractional inhibitory concentration index (FICI): 0.5
Cryptococcus neoformans [15]
  MIC: 4 µg/mL
Candida tropicalis
  inhibition: 82.9%
Aspergillus fumigatus [16]
  fractional inhibitory concentration index (FICI): 1.25
Cryptococcus neoformans [17]
  fractional inhibitory concentration index (FICI): 0.625
Cryptococcus neoformans [18]
  MIC: 4 µg/mL
Candida albicans [19]
  fractional inhibitory concentration index (FICI): 0.75
Aspergillus fumigatus [20]
  MIC: 4 µg/mL (≈ 7.81 µM)
Aspergillus fumigatus [21]
  fractional inhibitory concentration index (FICI): 1.25
Aspergillus flavus [22]
  MIC: 1 µg/mL (≈ 1.95 µM)
Aspergillus flavus [23]
  fractional inhibitory concentration index (FICI): 1.125
Aspergillus flavus [24]
  MIC: 1 µg/mL
Candida albicans [25]
  MIC: 2 µg/mL
Aspergillus flavus [26]
  MIC: 4 µg/mL
Candida albicans [27]
  MIC: 1 µg/mL (≈ 1.95 µM)
Aspergillus flavus [28]
  MIC: 64 µg/mL
Aspergillus flavus [29]
  MIC: 32 µg/mL (≈ 62.5 µM)
Cryptococcus neoformans [30]
  MIC: 4 µg/mL (≈ 7.81 µM)

## O=C(c1cccc(F)c1)N1CCN(CC(=O)N2CCCC23Cc2ccccc2NC3=O)CC1 (configuration not stated)
Aspergillus fumigatus [1]
  MIC: 128 µg/mL
Aspergillus fumigatus [2]
  MIC: 1 µg/mL
Candida albicans [3]
  MIC: 32 µg/mL (≈ 71 µM)
[4]
  IC50: 140 µM
Candida albicans [5]
  fractional inhibitory concentration index (FICI): 0.75
Aspergillus flavus [31]
  fractional inhibitory concentration index (FICI): 1.25
Aspergillus fumigatus [6]
  MIC: 32 µg/mL (≈ 71 µM)
Cryptococcus neoformans [7]
  MIC: 64 µg/mL
Candida albicans [8]
  MIC: 128 µg/mL (≈ 284 µM)
Cryptococcus neoformans [32]
  fractional inhibitory concentration index (FICI): 1.25
Cryptococcus neoformans [10]
  MIC: 32 µg/mL (≈ 71 µM)
Aspergillus fumigatus [11]
  MIC: 4 µg/mL
Candida albicans [12]
  MIC: 64 µg/mL
Candida albicans [13]
  MIC: 0.5 µg/mL
Cryptococcus neoformans [15]
  MIC: 2 µg/mL
Candida tropicalis
  inhibition: 76.8%
Cryptococcus neoformans [18]
  MIC: 2 µg/mL
Aspergillus fumigatus [33]
  fractional inhibitory concentration index (FICI): 0.5
Aspergillus fumigatus [20]
  MIC: 1 µg/mL (≈ 2.22 µM)
Aspergillus flavus [22]
  MIC: 4 µg/mL (≈ 8.88 µM)
Aspergillus flavus [23]
  fractional inhibitory concentration index (FICI): 1.25
Cryptococcus neoformans [34]
  fractional inhibitory concentration index (FICI): 1.125
Aspergillus fumigatus [35]
  fractional inhibitory concentration index (FICI): 0.625
Aspergillus flavus [24]
  MIC: 2 µg/mL
Candida albicans [36]
  fractional inhibitory concentration index (FICI): 1.063
Candida albicans [25]
  MIC: 1 µg/mL
Aspergillus flavus [26]
  MIC: 2 µg/mL
Candida albicans [27]
  MIC: 1 µg/mL (≈ 2.22 µM)
Aspergillus flavus [28]
  MIC: 64 µg/mL
Aspergillus flavus [29]
  MIC: 32 µg/mL (≈ 71 µM)
Cryptococcus neoformans [30]
  MIC: 8 µg/mL (≈ 17.8 µM)
